How the values were obtained:
[1] = system: Human adult lung fibroblasts (passage 3); experiment: Fibroblast activation (TGFβ, alpha-smooth muscle actin); format: cell-based; conditions: Homo sapiens, Fibroblast; +2 ng/mL TGFβ, 96 hours, alpha-smooth muscle actin intensity
Description: Human adult lung fibroblasts (passage 3) were plated into 96-well plates and treated with the indicated compound (6-point dose-response) +2 ng/mL TGFβ to stimulated fibroblast activation. Cells were incubated for 96 hours, fixed using 4% PFA, permeabilized using 0.25% triton x-100, and stained using a primary antibody recognizing alpha-smooth muscle actin and a secondary fluorescent conjugated antibody, and DAPI. Cells were then imaged using a 4× objective on a Cytation5 microscope and alpha-smooth muscle actin intensity was quantified using automated software (Biotek Gen5). Data shown are the IC50 values for each compounds efficacy at reducing expression of alpha-smooth muscle actin, calculated from the calculated dose-response curves, N=3 independent.

[2] = Stability in mouse plasma; format: in vitro ADME
Description: The stability of F-4N in plasma was assessed (FIG. 27). Compounds were incubated with human or mouse plasma. The percent of F-4N recovered was analyzed by LC-MS. Warfarin was used as a control for stable compound, and propantheline was used as a control for an unstable compound. Analysis was performed by Cyprotex (Framingham, MA).

[3] = system: Mdr2-/- mice; experiment: Mdr2-/- mouse model of PSC with established liver fibrosis, i.p. treatment; format: in vivo; conditions: 10 mg/kg/daily i.p. for 14 days
Description: FIG. 6. Biochemical and histological examination of fibrosis in Mdr2^−/− mice treated with vehicle or F-4N. Mdr2^−/− mice (18-20 weeks old) with established liver fibrosis were treated with F-4N (10 mg/kg/daily i.p. n=10) or vehicle (i.p. n=10) for 14 days, then sacrificed the next day. Liver tissue and serum were collected for analysis. Left panel. […] Right panels.
Hydroxyproline content was measured using a hydroxyproline assay kit (Biovision) according to the manufacturer's instructions with slight modification. The liver tissues were weighed, homogenized in sterile water (10 mg of tissue per 100 μL H2O) and hydrolyzed in 12 M HCl in a pressure-tight, Teflon capped vial at 120° C. for 3 hours followed by filtration through a 45 μm Spin-X Centrifuge Tube filter (Corning). Ten μL of the hydrolyzed samples was dried in a Speed-Vac for 2 hours, followed by incubation with 100 μL of Chloramine T reagent for 5 minutes at room temperature and 100 μL of 4-(dimethylamino)benzaldehyde (DMAB) for 90 minutes at 60° C. The absorbance of oxidized hydroxyproline was determined at 560 nm. Hydroxyproline concentrations were calculated from a standard curve generated using known concentrations of trans-4-hydroxyl-L-proline. The total amount of protein isolated from the weighed tissues was determined by using a protein assay kit (Bio-Rad, absorbance at 595 nm). The amount of collagen was expressed in μg/mg total protein.
The slides were then stained with a solution containing 0.1% picrosirius red (Direct Red 80) and 0.1% fast green (counterstain) in saturated aqueous solution of picric acid, for 60 minutes at room temperature, followed by one wash in distilled water, de-hydration in 3 changes of 100% EtOH, clear in xylene and mount in resinous medium.
Serum alanine aminotransferase (ALT), alkaline phosphatase (ALP) and total bile acids were measured using a commercially available veterinary chemistry analyzer (VetScan 2, Abaxis).
RNA isolation using RNeasy Plus Mini Kit (Qiagen) according to the manufacturer's instructions. Isolated RNA (250 ng) was then used to synthesize cDNA using SuperScript VILO (Invitrogen). Quantitative PCR was performed using FastStart Essential DNA Green Master (Roche) and analyzed using a LightCycler 96 (Roche). Data are expressed as a fold change by ΔΔCt relative to glyceraldehyde-3-phosphate dehydrogenase (GAPDH).

**Q.** For `O=c1c(O)c(-c2ccc(OCc3ccncc3)cc2)oc2ccccc12` [F—4N], which EC50 [1] is on record?
**A.** 1800 nM

**Q.** And the “stability in plasma (percent recovered, LC-MS)” value [2]?
**A.** stable

**Q.** And the “reduction of liver collagen content (hydroxyproline assay) compared to vehicle control” value [3]?
**A.** ~40%

**Q.** What about the “Liver function tests: ALT, ALP and serum bile acid values” ([3]; compared to vehicle) of the same compound?
**A.** significantly reduced

**Q.** What about the “RT-PCR of whole liver RNA: Col1a1, Il6, Ccl2, Cdkn1a, Cdkn2a” value ([3]; compared to vehicle) of the same compound?
**A.** significantly reduced

**Q.** And the “Picrosirius red staining of liver collagen fibers” value ([3]; particularly portal-to-portal areas)?
**A.** reduction of collagen fibers
